Columns and labels:
Experiment in all cases: biochemical
Set-up in all cases: KINOMEscan competition binding panel, per cent of control
Details in all cases: read-out: %Ctrl @ 2800nM
[1] = molecular target: T1, ICK (Homo sapiens, UniProt Q9UPZ9)
T1 construct: gene CILK1
Method in brief: (§1)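 Values are expressed as percent of control, calculated as ((test − positive control)/(negative control − positive control)) × 100, so lower numbers mean stronger hits. Binding was measured by KINOMEscan competition assay in a 450-kinase human panel including disease mutants, using the contractor's validated protocol.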

[2] = molecular target: T2, TAK1 (Homo sapiens, UniProt O43318)
T2 construct: gene MAP3K7
T2 sequence (O43318 whole entry): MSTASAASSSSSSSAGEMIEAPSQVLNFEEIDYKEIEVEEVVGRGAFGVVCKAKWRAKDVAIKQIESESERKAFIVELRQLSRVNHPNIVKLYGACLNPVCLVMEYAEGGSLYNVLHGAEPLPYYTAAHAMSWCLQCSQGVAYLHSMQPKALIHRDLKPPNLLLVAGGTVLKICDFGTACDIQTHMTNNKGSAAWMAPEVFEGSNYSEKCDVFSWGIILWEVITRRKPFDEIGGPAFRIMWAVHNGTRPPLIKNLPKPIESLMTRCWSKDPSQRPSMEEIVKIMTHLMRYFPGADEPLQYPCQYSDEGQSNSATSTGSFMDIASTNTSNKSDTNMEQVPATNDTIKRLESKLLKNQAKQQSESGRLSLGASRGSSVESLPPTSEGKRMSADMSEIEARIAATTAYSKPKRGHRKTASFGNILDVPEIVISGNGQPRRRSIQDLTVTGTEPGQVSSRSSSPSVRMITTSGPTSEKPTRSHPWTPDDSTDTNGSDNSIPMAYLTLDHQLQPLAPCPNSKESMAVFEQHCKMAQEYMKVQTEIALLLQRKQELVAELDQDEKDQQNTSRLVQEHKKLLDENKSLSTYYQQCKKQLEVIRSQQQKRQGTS
Method in brief: as §1

[3] = molecular target: NEK7 (Homo sapiens, UniProt Q8TDX7)
Method in brief: as §1

[4] = molecular target: SRMS (Homo sapiens, UniProt Q9H3Y6)
Method in brief: as §1

[5] = molecular target: PIKFYVE (Homo sapiens, UniProt Q9Y2I7)
Method in brief: as §1

[6] = molecular target: DAPK1 (Homo sapiens, UniProt P53355)
Method in brief: as §1

[7] = molecular target: DDR2 (Homo sapiens, UniProt Q16832)
Method in brief: as §1

[8] = molecular target: T3, MEK4 (Homo sapiens, UniProt P45985)
T3 construct: gene MAP2K4
Method in brief: as §1

[9] = molecular target: FGFR1 (Homo sapiens, UniProt P11362)
Method in brief: as §1

[10] = molecular target: EPHA4 (Homo sapiens, UniProt P54764)
Method in brief: as §1

[11] = molecular target: FLT3(D835V) (Homo sapiens, UniProt P36888, D835V)
Method in brief: as §1

[12] = molecular target: MAP4K3 (Homo sapiens, UniProt Q8IVH8)
Chain of MAP4K3 (Q8IVH8 whole entry): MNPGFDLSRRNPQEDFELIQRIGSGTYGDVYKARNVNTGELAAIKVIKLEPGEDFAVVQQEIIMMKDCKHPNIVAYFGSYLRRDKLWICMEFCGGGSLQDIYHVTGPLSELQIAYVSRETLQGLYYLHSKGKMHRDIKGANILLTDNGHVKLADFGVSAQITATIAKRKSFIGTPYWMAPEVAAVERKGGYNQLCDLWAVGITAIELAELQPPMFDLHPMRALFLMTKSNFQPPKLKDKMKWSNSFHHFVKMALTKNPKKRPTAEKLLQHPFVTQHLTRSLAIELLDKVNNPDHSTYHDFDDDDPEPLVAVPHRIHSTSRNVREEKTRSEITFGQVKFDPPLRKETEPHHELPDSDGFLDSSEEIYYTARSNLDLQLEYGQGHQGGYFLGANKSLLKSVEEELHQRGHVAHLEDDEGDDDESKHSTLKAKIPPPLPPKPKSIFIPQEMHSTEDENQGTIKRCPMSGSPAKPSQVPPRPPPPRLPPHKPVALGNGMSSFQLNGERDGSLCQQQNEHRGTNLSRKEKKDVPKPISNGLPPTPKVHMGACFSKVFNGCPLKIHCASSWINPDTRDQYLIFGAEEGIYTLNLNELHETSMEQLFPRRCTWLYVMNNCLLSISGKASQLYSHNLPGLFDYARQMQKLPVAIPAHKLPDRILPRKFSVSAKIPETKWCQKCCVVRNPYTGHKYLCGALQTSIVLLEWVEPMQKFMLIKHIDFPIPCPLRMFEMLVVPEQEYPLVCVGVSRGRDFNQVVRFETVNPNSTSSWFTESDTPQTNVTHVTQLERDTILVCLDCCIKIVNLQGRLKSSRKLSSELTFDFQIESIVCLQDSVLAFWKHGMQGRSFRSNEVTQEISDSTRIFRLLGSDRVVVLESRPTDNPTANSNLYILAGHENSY
Method in brief: as §1

[13] = molecular target: T4, LKB1 (Homo sapiens, UniProt Q15831)
T4 construct: gene STK11
T4 sequence (Q15831 whole entry): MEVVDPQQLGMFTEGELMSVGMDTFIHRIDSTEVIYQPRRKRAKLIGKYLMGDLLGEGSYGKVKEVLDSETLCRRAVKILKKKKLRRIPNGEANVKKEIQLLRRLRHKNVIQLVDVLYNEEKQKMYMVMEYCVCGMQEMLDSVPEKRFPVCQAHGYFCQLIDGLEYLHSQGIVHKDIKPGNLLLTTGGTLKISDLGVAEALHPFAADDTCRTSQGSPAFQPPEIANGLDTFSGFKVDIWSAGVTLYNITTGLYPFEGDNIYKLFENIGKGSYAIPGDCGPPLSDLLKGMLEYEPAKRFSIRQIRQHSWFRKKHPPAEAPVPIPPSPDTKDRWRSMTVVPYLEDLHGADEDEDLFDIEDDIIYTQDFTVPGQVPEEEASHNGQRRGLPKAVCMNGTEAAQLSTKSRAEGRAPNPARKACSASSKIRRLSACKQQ
Method in brief: as §1

[14] = molecular target: T5, MEK5 (Homo sapiens, UniProt Q13163)
T5 construct: gene MAP2K5
Method in brief: as §1

[15] = molecular target: TAOK3 (Homo sapiens, UniProt Q9H2K8)
Chain of TAOK3 (Q9H2K8 whole entry): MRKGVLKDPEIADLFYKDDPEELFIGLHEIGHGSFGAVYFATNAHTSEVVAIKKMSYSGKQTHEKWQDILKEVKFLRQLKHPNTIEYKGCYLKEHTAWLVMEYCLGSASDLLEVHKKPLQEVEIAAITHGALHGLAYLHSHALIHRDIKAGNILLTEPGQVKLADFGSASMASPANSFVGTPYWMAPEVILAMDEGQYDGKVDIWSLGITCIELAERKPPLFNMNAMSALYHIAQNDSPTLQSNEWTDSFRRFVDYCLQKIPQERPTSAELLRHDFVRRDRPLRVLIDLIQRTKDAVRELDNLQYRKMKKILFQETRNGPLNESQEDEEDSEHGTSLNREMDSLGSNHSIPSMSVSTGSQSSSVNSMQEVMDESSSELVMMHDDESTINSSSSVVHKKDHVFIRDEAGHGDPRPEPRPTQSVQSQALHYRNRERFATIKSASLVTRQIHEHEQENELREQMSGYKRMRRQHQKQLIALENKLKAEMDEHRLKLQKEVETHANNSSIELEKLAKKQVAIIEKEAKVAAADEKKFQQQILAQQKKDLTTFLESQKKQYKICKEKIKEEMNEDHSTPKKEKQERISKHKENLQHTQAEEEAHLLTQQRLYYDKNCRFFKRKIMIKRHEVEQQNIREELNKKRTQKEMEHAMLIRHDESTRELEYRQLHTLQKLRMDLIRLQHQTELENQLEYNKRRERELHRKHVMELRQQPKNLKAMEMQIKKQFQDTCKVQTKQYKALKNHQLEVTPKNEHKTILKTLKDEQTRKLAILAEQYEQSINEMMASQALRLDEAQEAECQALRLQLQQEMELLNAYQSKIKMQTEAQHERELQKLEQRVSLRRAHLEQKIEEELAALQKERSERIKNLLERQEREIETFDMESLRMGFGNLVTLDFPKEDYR
Method in brief: as §1

[16] = molecular target: MAP3K4 (Homo sapiens, UniProt Q9Y6R4)
Chain of MAP3K4 (Q9Y6R4 whole entry): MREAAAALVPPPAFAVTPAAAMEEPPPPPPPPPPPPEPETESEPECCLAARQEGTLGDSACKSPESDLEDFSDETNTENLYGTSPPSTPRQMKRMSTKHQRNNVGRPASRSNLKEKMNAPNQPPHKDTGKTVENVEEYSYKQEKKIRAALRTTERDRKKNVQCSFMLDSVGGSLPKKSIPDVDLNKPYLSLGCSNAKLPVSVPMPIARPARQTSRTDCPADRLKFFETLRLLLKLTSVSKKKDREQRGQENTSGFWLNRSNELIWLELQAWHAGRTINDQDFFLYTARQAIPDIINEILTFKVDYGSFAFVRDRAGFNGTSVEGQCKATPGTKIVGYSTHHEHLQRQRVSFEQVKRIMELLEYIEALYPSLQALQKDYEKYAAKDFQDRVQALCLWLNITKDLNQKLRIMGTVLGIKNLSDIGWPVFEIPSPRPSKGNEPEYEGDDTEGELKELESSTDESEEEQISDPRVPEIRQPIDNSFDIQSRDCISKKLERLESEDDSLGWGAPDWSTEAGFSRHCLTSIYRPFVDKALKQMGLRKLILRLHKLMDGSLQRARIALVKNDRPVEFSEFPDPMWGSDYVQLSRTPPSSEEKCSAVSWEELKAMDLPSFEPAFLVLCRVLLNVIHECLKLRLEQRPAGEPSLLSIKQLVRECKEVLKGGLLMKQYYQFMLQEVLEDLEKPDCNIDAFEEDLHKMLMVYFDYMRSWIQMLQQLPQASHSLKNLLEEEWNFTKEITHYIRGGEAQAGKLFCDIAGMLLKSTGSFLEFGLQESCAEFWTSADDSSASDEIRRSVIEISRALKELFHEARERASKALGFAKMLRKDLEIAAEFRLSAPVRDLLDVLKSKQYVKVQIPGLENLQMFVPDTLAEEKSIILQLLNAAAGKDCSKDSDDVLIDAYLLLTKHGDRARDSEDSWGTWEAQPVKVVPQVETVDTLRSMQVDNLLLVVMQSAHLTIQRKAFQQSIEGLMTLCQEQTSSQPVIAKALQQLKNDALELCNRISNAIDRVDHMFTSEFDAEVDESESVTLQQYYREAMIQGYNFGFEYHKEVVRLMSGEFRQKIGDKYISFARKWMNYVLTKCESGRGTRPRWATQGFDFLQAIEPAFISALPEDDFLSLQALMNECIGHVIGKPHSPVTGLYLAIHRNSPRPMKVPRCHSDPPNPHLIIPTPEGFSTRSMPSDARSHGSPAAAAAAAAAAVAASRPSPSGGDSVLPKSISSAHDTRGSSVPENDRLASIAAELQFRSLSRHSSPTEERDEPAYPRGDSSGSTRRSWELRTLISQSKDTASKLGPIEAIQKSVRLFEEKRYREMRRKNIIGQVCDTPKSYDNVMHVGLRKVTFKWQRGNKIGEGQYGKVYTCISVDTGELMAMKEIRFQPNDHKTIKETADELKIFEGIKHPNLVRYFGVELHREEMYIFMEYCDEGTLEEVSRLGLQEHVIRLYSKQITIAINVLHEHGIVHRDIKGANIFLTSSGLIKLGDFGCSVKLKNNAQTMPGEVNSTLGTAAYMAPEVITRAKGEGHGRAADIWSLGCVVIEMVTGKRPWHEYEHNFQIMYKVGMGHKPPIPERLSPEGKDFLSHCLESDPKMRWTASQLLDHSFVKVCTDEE
Method in brief: as §1

[17] = molecular target: T6, MRCKB (Homo sapiens, UniProt Q9Y5S2)
T6 construct: gene CDC42BPB
Method in brief: as §1

[18] = molecular target: TGFBR2 (Homo sapiens, UniProt P37173)
Method in brief: as §1

[19] = molecular target: PLK3 (Homo sapiens, UniProt Q9H4B4)
Chain of PLK3 (Q9H4B4 whole entry): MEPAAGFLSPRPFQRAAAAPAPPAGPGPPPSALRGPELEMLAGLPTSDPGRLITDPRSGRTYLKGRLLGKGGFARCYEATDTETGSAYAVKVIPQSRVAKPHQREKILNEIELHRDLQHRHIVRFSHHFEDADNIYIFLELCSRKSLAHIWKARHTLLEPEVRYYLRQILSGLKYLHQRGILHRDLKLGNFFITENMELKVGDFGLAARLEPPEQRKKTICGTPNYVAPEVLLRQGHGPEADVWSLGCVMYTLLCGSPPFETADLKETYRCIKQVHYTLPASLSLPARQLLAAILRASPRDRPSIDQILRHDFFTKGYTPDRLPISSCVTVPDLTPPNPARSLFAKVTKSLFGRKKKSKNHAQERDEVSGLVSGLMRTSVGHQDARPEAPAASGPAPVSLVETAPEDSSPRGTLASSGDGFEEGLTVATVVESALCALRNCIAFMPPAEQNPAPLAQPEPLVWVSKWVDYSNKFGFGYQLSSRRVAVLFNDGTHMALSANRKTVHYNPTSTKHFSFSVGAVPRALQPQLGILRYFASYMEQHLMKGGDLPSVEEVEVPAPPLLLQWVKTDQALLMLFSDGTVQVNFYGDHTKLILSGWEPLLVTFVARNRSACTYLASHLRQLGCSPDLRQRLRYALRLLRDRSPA
Method in brief: as §1

[20] = molecular target: PIK3CA(C420R) (Homo sapiens, UniProt P42336, C420R)
Method in brief: as §1

[21] = molecular target: DAPK3 (Homo sapiens, UniProt O43293)
Method in brief: as §1

[22] = molecular target: MAP3K1 (Homo sapiens, UniProt Q13233)
Method in brief: as §1

[23] = molecular target: T7, RSK1(Kin.Dom.2-C-terminal) (Homo sapiens, UniProt Q15418)
T7 construct: gene RPS6KA1; Kin.Dom.2-C-terminal
Method in brief: as §1

[24] = molecular target: RIPK4 (Homo sapiens, UniProt P57078)
Method in brief: as §1

[25] = molecular target: T8, ASK2 (Homo sapiens, UniProt O95382)
T8 construct: gene MAP3K6
Method in brief: as §1

[26] = molecular target: MTOR (Homo sapiens, UniProt P42345)
Method in brief: as §1

With `[O-][S@@+](Cc1cncs1)C(c1ccccc1)c1ccccc1` [S-CE-123, (S)-5-((Benzhydrylsulfinyl)Methyl)Thiazole] the remaining binding at 2.8 µM [1] was 91%, the remaining binding at 2.8 µM [2] was 71% and the remaining binding at 2.8 µM [3] was 100%. It also gave a remaining binding at 2.8 µM [4] of 99%, a remaining binding at 2.8 µM [5] of 100% and a remaining binding at 2.8 µM [6] of 91%. It also gave a remaining binding at 2.8 µM [7] of 100%, a remaining binding at 2.8 µM [8] of 100% and a remaining binding at 2.8 µM [9] of 100%. The remaining binding at 2.8 µM [10] was 97%, the remaining binding at 2.8 µM [11] was 100% and the remaining binding at 2.8 µM [12] was 100%. It also gave a remaining binding at 2.8 µM [13] of 100%, a remaining binding at 2.8 µM [14] of 98% and a remaining binding at 2.8 µM [15] of 91%. The remaining binding at 2.8 µM [16] was 84%, the remaining binding at 2.8 µM [17] was 98% and the remaining binding at 2.8 µM [18] was 88%. For the same compound, the remaining binding at 2.8 µM [19] was 95%, the remaining binding at 2.8 µM [20] was 92% and the remaining binding at 2.8 µM [21] was 96%. The remaining binding at 2.8 µM [22] was 85%, the remaining binding at 2.8 µM [23] was 92% and the remaining binding at 2.8 µM [24] was 97%. It also gave a remaining binding at 2.8 µM [25] of 100% and a remaining binding at 2.8 µM [26] of 100%.

From paper PMC10046369, “Low-Affinity/High-Selectivity Dopamine Transport Inhibition Sufficient to Rescue Cognitive Functions in the Aging Rat” (Biomolecules, 2023)
